Experimental data as given in patent US4228292A, “N-Substituted benzothiazolines and benzoxazolines and their use as herbicides and plant growth regulants” (Monsanto Company, priority 1978, dated 1980).

How the values were obtained:
Assay type in all cases: in vivo
[1] = tested on: Wild Buckwheat; test: post-emergent herbicidal test; conditions: Q
Protocol: (§1) The post-emergent tests were conducted as follows:
(§2) The herbicidal active ingredients are applied in spray form to two or three-week old specimens of various plant species. The spray, a solution or wettable powder suspension containing the appropriate rate of herbicidal active ingredient to give the desired test rate and a surfactant, is applied to the plants. The treated plants are placed in a greenhouse and approximately two or four weeks later the effects are observed and recorded. The results are shown in Tables IX and X in which the post-emergent herbicidal rating code is as follows: […]

[2] = tested on: Sugar Beet; test: post-emergent herbicidal test; conditions: M
Protocol: as §1, §2

[3] = tested on: Wheat; test: post-emergent herbicidal test; conditions: N
Protocol: as §1, §2

[4] = tested on: Rice; test: post-emergent herbicidal test; conditions: O
Protocol: as §1, §2

[5] = tested on: Crabgrass; test: post-emergent herbicidal test; conditions: T
Protocol: as §1, §2

[6] = tested on: Hemp Sesbania; test: post-emergent herbicidal test; conditions: R
Protocol: as §1, §2

[7] = tested on: Soybean; test: post-emergent herbicidal test; conditions: L
Protocol: as §1, §2

[8] = tested on: Sorghum; test: post-emergent herbicidal test; conditions: P
Protocol: as §1, §2

[9] = tested on: Panicum Spp; test: post-emergent herbicidal test; conditions: S
Protocol: as §1, §2

[10] = tested on: Wild Buckwheat; test: pre-emergent herbicidal test; conditions: Q
Protocol: (§3) The pre-emergent test was conducted as follows:
(§4) A good grade of top soil was placed in aluminum pans and compactd to a depth of 0.95 to 1.27 cm. from the top of the pan. On the top of the soil was placed a predetermined number of seeds or vegetative propagules of various plant species. The soil required to level fill the pans after seeding or adding vegetative propagules was weighed into a pan. A known amount of the herbicidal active ingredient applied in a solvent or as a wettable powder and the soil were thoroughly mixed, and used as a cover layer for prepared pans. After treatment the pans were moved into a greenhouse bench where they were watered from below as needed to give adequate moisture for germination and growth.
(§5) A herbicidal rating code was used to signify the extent of phytotoxicity of each species. The ratings are defined as follows: […]

[11] = tested on: Sugar Beet; test: pre-emergent herbicidal test; conditions: M
Protocol: as §3, §4, §5

[12] = tested on: Wheat; test: pre-emergent herbicidal test; conditions: N
Protocol: as §3, §4, §5

[13] = tested on: Rice; test: pre-emergent herbicidal test; conditions: O
Protocol: as §3, §4, §5

[14] = tested on: Crabgrass; test: pre-emergent herbicidal test; conditions: T
Protocol: as §3, §4, §5

[15] = tested on: Hemp Sesbania; test: pre-emergent herbicidal test; conditions: R
Protocol: as §3, §4, §5

[16] = tested on: Soybean; test: pre-emergent herbicidal test; conditions: L
Protocol: as §3, §4, §5

[17] = tested on: Sorghum; test: pre-emergent herbicidal test; conditions: P
Protocol: as §3, §4, §5

[18] = tested on: Panicum Spp; test: pre-emergent herbicidal test; conditions: S
Protocol: as §3, §4, §5
Also: ranges in brackets are in %.

## COC(=N)Cn1c(=O)sc2ccccc21 [Compound 38]
[1]; 0.28 kg/h, 2 WAT
  post-emergent herbicidal rating: 0 (0-24)
[1]; 1.12 kg/h, 4 WAT
  post-emergent herbicidal rating: 2 (50-74)
[2]; 0.28 kg/h, 2 WAT
  post-emergent herbicidal rating: 1 (25-49)
[2]; 1.12 kg/h, 4 WAT
  post-emergent herbicidal rating: 2 (50-74)
[3]; 0.28 kg/h, 2 WAT
  post-emergent herbicidal rating: 0 (0-24)
[3]; 1.12 kg/h, 4 WAT
  post-emergent herbicidal rating: 0 (0-24)
[4]; 0.28 kg/h, 2 WAT
  post-emergent herbicidal rating: 0 (0-24)
[4]; 1.12 kg/h, 4 WAT
  post-emergent herbicidal rating: 1 (25-49)
[5]; 0.28 kg/h, 2 WAT
  post-emergent herbicidal rating: 0 (0-24)
[5]; 1.12 kg/h, 4 WAT
  post-emergent herbicidal rating: 0 (0-24)
[6]; 0.28 kg/h, 2 WAT
  post-emergent herbicidal rating: 0 (0-24)
[6]; 1.12 kg/h, 4 WAT
  post-emergent herbicidal rating: 1 (25-49)
[7]; 0.28 kg/h, 2 WAT
  post-emergent herbicidal rating: 1 (25-49)
[7]; 1.12 kg/h, 4 WAT
  post-emergent herbicidal rating: 1 (25-49)
[8]; 0.28 kg/h, 2 WAT
  post-emergent herbicidal rating: 0 (0-24)
[8]; 1.12 kg/h, 4 WAT
  post-emergent herbicidal rating: 0 (0-24)
[9]; 0.28 kg/h, 2 WAT
  post-emergent herbicidal rating: 0 (0-24)
[9]; 1.12 kg/h, 4 WAT
  post-emergent herbicidal rating: 0 (0-24)

## CCOC(=N)Cn1c(=O)sc2ccccc21 [Compound 25]
[10]; 0.056 kg/h, 2 WAT
  pre-emergent herbicidal rating: 0 (0-24)
[10]; 0.28 kg/h, 2 WAT
  pre-emergent herbicidal rating: 0 (0-24)
[10]; 1.12 kg/h, 4 WAT
  pre-emergent herbicidal rating: 1 (25-49)
[10]; 5.6 kg/h, 4 WAT
  pre-emergent herbicidal rating: 2 (50-74)
[11]; 0.056 kg/h, 2 WAT
  pre-emergent herbicidal rating: 0 (0-24)
[11]; 0.28 kg/h, 2 WAT
  pre-emergent herbicidal rating: 1 (25-49)
[11]; 1.12 kg/h, 4 WAT
  pre-emergent herbicidal rating: 1 (25-49)
[11]; 5.6 kg/h, 4 WAT
  pre-emergent herbicidal rating: 3 (75-100)
[12]; 0.056 kg/h, 2 WAT
  pre-emergent herbicidal rating: 0 (0-24)
[12]; 0.28 kg/h, 2 WAT
  pre-emergent herbicidal rating: 0 (0-24)
[12]; 1.12 kg/h, 4 WAT
  pre-emergent herbicidal rating: 0 (0-24)
[12]; 5.6 kg/h, 4 WAT
  pre-emergent herbicidal rating: 1 (25-49)
[13]; 0.056 kg/h, 2 WAT
  pre-emergent herbicidal rating: 0 (0-24)
[13]; 0.28 kg/h, 2 WAT
  pre-emergent herbicidal rating: 0 (0-24)
[13]; 1.12 kg/h, 4 WAT
  pre-emergent herbicidal rating: 0 (0-24)
[13]; 5.6 kg/h, 4 WAT
  pre-emergent herbicidal rating: 1 (25-49)
[14]; 0.056 kg/h, 2 WAT
  pre-emergent herbicidal rating: 0 (0-24)
[14]; 0.28 kg/h, 2 WAT
  pre-emergent herbicidal rating: 0 (0-24)
[14]; 1.12 kg/h, 4 WAT
  pre-emergent herbicidal rating: 0 (0-24)
[14]; 5.6 kg/h, 4 WAT
  pre-emergent herbicidal rating: 2 (50-74)
[15]; 0.056 kg/h, 2 WAT
  pre-emergent herbicidal rating: 0 (0-24)
[15]; 0.28 kg/h, 2 WAT
  pre-emergent herbicidal rating: 0 (0-24)
[15]; 1.12 kg/h, 4 WAT
  pre-emergent herbicidal rating: 2 (50-74)
[15]; 5.6 kg/h, 4 WAT
  pre-emergent herbicidal rating: 3 (75-100)
[16]; 0.056 kg/h, 2 WAT
  pre-emergent herbicidal rating: 0 (0-24)
[16]; 0.28 kg/h, 2 WAT
  pre-emergent herbicidal rating: 1 (25-49)
[16]; 1.12 kg/h, 4 WAT
  pre-emergent herbicidal rating: 2 (50-74)
[16]; 5.6 kg/h, 4 WAT
  pre-emergent herbicidal rating: 3 (75-100)
[17]; 0.056 kg/h, 2 WAT
  pre-emergent herbicidal rating: 0 (0-24)
[17]; 0.28 kg/h, 2 WAT
  pre-emergent herbicidal rating: 0 (0-24)
[17]; 1.12 kg/h, 4 WAT
  pre-emergent herbicidal rating: 0 (0-24)
[17]; 5.6 kg/h, 4 WAT
  pre-emergent herbicidal rating: 0 (0-24)
[18]; 0.056 kg/h, 2 WAT
  pre-emergent herbicidal rating: 0 (0-24)
[18]; 0.28 kg/h, 2 WAT
  pre-emergent herbicidal rating: 0 (0-24)
[18]; 1.12 kg/h, 4 WAT
  pre-emergent herbicidal rating: 0 (0-24)
[18]; 5.6 kg/h, 4 WAT
  pre-emergent herbicidal rating: 0 (0-24)

## COC(=N)Cn1c(=O)sc2ccccc21 [Compound 37]
[1]; 1.12 kg/h, 4 WAT
  post-emergent herbicidal rating: 2 (50-74)
[1]; 5.6 kg/h, 4 WAT
  post-emergent herbicidal rating: 4 (100)
[2]; 1.12 kg/h, 4 WAT
  post-emergent herbicidal rating: 2 (50-74)
[2]; 5.6 kg/h, 4 WAT
  post-emergent herbicidal rating: 2 (50-74)
[3]; 1.12 kg/h, 4 WAT
  post-emergent herbicidal rating: 0 (0-24)
[3]; 5.6 kg/h, 4 WAT
  post-emergent herbicidal rating: 0 (0-24)
[4]; 1.12 kg/h, 4 WAT
  post-emergent herbicidal rating: 0 (0-24)
[4]; 5.6 kg/h, 4 WAT
  post-emergent herbicidal rating: 0 (0-24)
[5]; 1.12 kg/h, 4 WAT
  post-emergent herbicidal rating: 0 (0-24)
[5]; 5.6 kg/h, 4 WAT
  post-emergent herbicidal rating: 1 (25-49)
[6]; 1.12 kg/h, 4 WAT
  post-emergent herbicidal rating: 2 (50-74)
[6]; 5.6 kg/h, 4 WAT
  post-emergent herbicidal rating: 3 (75-99)
[7]; 1.12 kg/h, 4 WAT
  post-emergent herbicidal rating: 1 (25-49)
[7]; 5.6 kg/h, 4 WAT
  post-emergent herbicidal rating: 2 (50-74)
[8]; 1.12 kg/h, 4 WAT
  post-emergent herbicidal rating: 0 (0-24)
[8]; 5.6 kg/h, 4 WAT
  post-emergent herbicidal rating: 0 (0-24)
[9]; 1.12 kg/h, 4 WAT
  post-emergent herbicidal rating: 0 (0-24)
[9]; 5.6 kg/h, 4 WAT
  post-emergent herbicidal rating: 0 (0-24)
